The nature of data set [1]: Acute toxicity (LD50) in male mice. Particulars: mouse, in vivo, po.
For data set [2], the system named is reserpine-induced hypothermia. Nature of the data set: Antagonistic activity against reserpine-induced hypothermia. It is filed as in vivo, ddY male mice. As to conditions: Mus musculus, po, read-out: ED50 (dose exhibiting 50% antagonistic activity against reserpine hypothermia). The method, then:
A. ANTAGONISTIC ACTIVITY AGAINST RESERPINE-INDUCED HYPOTHERMIA
A test was carried out using ddY male mice of 22-25 g in body weight, one group consisting of 6 mice.
The body temperature of mice was approximately 38° C. before the test. At 4 hours after intraperitoneal administration of reserpine in an amount of 5 mg/kg the body temperature of mice was reduced by approximately 8° C. in average. The test compound was simultaneously orally administered with 5 mg/kg of reserpine, and the degree of antagonistic effect of the test compound on the hypothermal action of reserpine was measured. This test has hitherto been the commonest method for evaluating anti-depressant activity.
Percentage (%) of an antagonistic activity was calculated by varying the doses of each test compound.

Data set [3] deals with passive avoidance response failure by electric shock. Nature of the data set: Passive avoidance response failure by electric shock as model of amnesia. Particulars: p.o., male Wistar rats, 3 hours or more after oral administration. It counts as in vivo. An excerpt:
B. PASSIVE AVOIDANCE RESPONSE FAILURE BY ELECTRIC SHOCK AS MODEL OF AMNESIA
The test apparatus used, called as "Two Compartment Avoidance Box", consisted of a large lit compartment and a small dark compartment having a grid floor to which an electric current can be applied, these two compartments being painted black innerly and connected to each other
Male Wistar rats of 170-220 g in body weight enter into the small box soon after they are introduced into the large box. […] This response is called as "passive avoidance response".
However, if an electric shock of 60 mA, 200 Hz for 0.8 second is given to the rat by electrodes set on both ears of the rat immediately after the rat comes out of the small box upon the application of the electric current, the "passive avoidance response" is inhibited. Indeed, the period for entering into the small box from the large box, latency, is shortened. This phenomenon is caused by loss of memory of the electric current applied from the grid floor by the electric shock. The shortened time of latency is used as an index of the loss of memory.
A memory improvement effect of a test compound is expressed in the degree of prolongation of latency (% improvement) in a test carried out 3 hours or more after the oral administration of the test compound after application of an electric shock.

Where [4] appears, read: mice, test compound orally, simultaneously with reserpine 5 mg/kg, body temperature at 4 hours, Litchfield-Wilcoxon method.

As a reminder, the LD50 is the dose at which mortality reaches 50%. In general, ED50 refers to the midpoint of the dose-response relation.

Where two headings read alike, the source gives them in different places.

In the case of `Cc1sc2nc(N3CCNCC3)nc(-c3ccccc3)c2c1C` [Example 4, 5,6-dimethyl-4-phenyl-2-piperazinyl-thieno[2,3-d]pyrimidine], the LD50 in data set [1] (male mice) stood at 1330 mg/kg. The ED50 in data set [2] (setting [4]) came out at 1.8 mg/kg.

As for `Cc1cc2c(-c3ccccc3F)nc(N3CCNCC3)nc2s1` [Example 14], the LD50 in data set [1] was determined as 1110 mg/kg. Further, the entries for the “Improvement (prolongation of latency)” value in data set [3] (25 mg/kg) and in data set [3] (100 mg/kg) were 30.9% and 51.5%, respectively. The ED50 in data set [2] (setting [4]) was found to be 0.27 mg/kg.

In the case of `Clc1cc2c(-c3ccccc3)nc(N3CCNCC3)nc2s1` [Example 7, 6-chloro-4-phenyl-2-piperazinyl-thieno[2,3-d]pyrimidine], the ED50 in data set [2] (setting [4]) is 2.4 mg/kg.

For the compound `NC(=O)CN1CCCC1=O` [Piracetam, reference compound], the entries for the “Improvement (prolongation of latency)” value in data set [3] (250 mg/kg) and in data set [3] (500 mg/kg) were 22.0% and 14.1%, respectively.

Turning to `Cc1csc2nc(N3CCNCC3)nc(-c3ccccc3)c12` [Example 5, 5-methyl-4-phenyl-2-piperazinyl-thieno[2,3-d]pyrimidine], the LD50 in data set [1] (male mice) came to 275 mg/kg. Further, the ED50 in data set [2] (setting [4]) turned out to be 4 mg/kg.

Turning to `CN(C)CCC=C1c2ccccc2CCc2ccccc21` [Amitriptyline, reference compound], in data set [1] (male mice), the LD50 is 380 mg/kg. In data set [2] (4 h), the ED50 amounted to 14.5 mg/kg.

In data set [1], `Cc1cc2c(-c3ccccc3C#N)nc(N3CCNCC3)nc2s1` [Example 20] showed an LD50 of 370 mg/kg. Moreover, the ED50 in data set [2] (setting [4]) came to 1.5 mg/kg.

`Cc1cc2c(-c3ccccc3Br)nc(N3CCNCC3)nc2s1` [Example 15] yielded an LD50 in data set [1] of 1750 mg/kg. In addition, the ED50 in data set [2] (setting [4]) is 2.9 mg/kg.

For the compound `Cc1cc2c(-c3ccccc3)nc(N3CCNCC3)nc2s1` [Example 1, 6-METHYL-4-PHENYL-2-PIPERAZINYLTHIENO[2,3-d]PYRIMIDINE], the LD50 in data set [1] was found to be 1170 mg/kg. Besides, the results for the “Improvement (prolongation of latency)” value in data set [3] (25 mg/kg) and in data set [3] (100 mg/kg) were 6.8% and 22.7%, respectively. Besides, the ED50 in data set [2] (setting [4]) was 2 mg/kg.

In data set [1], `Cc1cc2c(-c3ccccc3C)nc(N3CCNCC3)nc2s1` [Example 16] showed an LD50 of 1400 mg/kg. For the same compound, the “Improvement (prolongation of latency)” value is on record as 12.8% in data set [3] (25 mg/kg) and 46.6% in data set [3] (100 mg/kg). Besides, the ED50 in data set [2] (setting [4]) was 0.5 mg/kg.
